Results as given in ChEMBL document CHEMBL4052693, “1,2,4-Triazole and 1,3,4-oxadiazole analogues: Synthesis, MO studies, in silico molecular docking studies, antimalarial as DHFR inhibitor and antimicrobial activities” (Bioorg Med Chem, 2017).
In brackets after ≈: the same amount, converted by molar mass. Activity calls are given as the source filed them. No cut-off for these calls is given here.

Assays:
[1] = test system: Schizosaccharomyces pombe; experiment: Genotoxicity in Schizosaccharomyces pombe Var. Paul Linder 3360 assessed as DNA damage at 2 to 10 ug/ml after 17 to 18 hrs by agarose gel electrophoresis analysis
[2] = Cytotoxicity against Schizosaccharomyces pombe Var. Paul Linder 3360 assessed as cell viability at 6 ug/ml after 16 to 18 hrs by trypan blue staining-based compound microscopic analysis (reference value: 93.67 +/- 1.53%); settings: Schizosaccharomyces pombe Var. Paul Linder 3360 cells, read-out: Activity
Candida albicans = experiment: Antifungal activity against Candida albicans MTCC 227 incubated for overnight by broth micro dilution method; assay type: functional
Escherichia coli = experiment: Antimicrobial activity against Escherichia coli MTCC 443 incubated for overnight by broth micro dilution method; assay type: functional
[3] = Cytotoxicity against Schizosaccharomyces pombe Var. Paul Linder 3360 assessed as cell viability at 2 ug/ml after 16 to 18 hrs by trypan blue staining-based compound microscopic analysis (reference value: 93.67 +/- 1.53%); settings: Schizosaccharomyces pombe Var. Paul Linder 3360 cells, read-out: Activity
Pseudomonas aeruginosa = experiment: Antimicrobial activity against Pseudomonas aeruginosa MTCC 1688 incubated for overnight by broth micro dilution method; assay type: functional
[4] = Cytotoxicity against Schizosaccharomyces pombe Var. Paul Linder 3360 assessed as cell viability at 10 ug/ml after 16 to 18 hrs by trypan blue staining-based compound microscopic analysis (reference value: 93.67 +/- 1.53%); settings: Schizosaccharomyces pombe Var. Paul Linder 3360 cells, read-out: Activity
Staphylococcus aureus = experiment: Antimicrobial activity against Staphylococcus aureus MTCC 96 incubated for overnight by broth micro dilution method; assay type: functional
[5] = Cytotoxicity against Schizosaccharomyces pombe Var. Paul Linder 3360 assessed as cell viability at 8 ug/ml after 16 to 18 hrs by trypan blue staining-based compound microscopic analysis (reference value: 93.67 +/- 1.53%); settings: Schizosaccharomyces pombe Var. Paul Linder 3360 cells, read-out: Activity
[6] = Cytotoxicity against Schizosaccharomyces pombe Var. Paul Linder 3360 assessed as cell viability at 4 ug/ml after 16 to 18 hrs by trypan blue staining-based compound microscopic analysis (reference value: 93.67 +/- 1.53%); settings: Schizosaccharomyces pombe Var. Paul Linder 3360 cells, read-out: Activity
Plasmodium falciparum = experiment: Antimalarial activity against Plasmodium falciparum ring stage forms after 48 hrs; assay type: functional
Streptococcus pyogenes = experiment: Antimicrobial activity against Streptococcus pyogenes MTCC 442 incubated for overnight by broth micro dilution method; assay type: functional
Aspergillus clavatus [7] = settings: MTCC 1323
Dihydrofolate reductase = target: T1, Dihydrofolate reductase (Bos taurus, UniProt P00376); experiment: Inhibition of bovine liver DHFR pre-incubated 2 mins before dihydrofolic acid substrate addition and measured over 10 mins in presence of NADPH
T1 sequence (P00376 whole entry): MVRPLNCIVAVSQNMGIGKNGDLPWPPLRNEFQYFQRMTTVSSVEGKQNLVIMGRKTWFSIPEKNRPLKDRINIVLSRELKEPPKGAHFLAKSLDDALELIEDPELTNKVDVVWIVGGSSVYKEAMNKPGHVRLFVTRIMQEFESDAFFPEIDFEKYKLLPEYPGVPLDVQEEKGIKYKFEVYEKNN

Aspergillus clavatus [8] = experiment: Antifungal activity against Aspergillus clavatus MTCC 1323 incubated for overnight by broth micro dilution method; assay type: functional

Row | Compound | Activity [1] | viability at 6 ug/ml [2] [%] | MIC99 (Candida albicans) | MIC99 (Escherichia coli) [µM] | viability at 2 ug/ml [3] [%] | MIC99 (Pseudomonas aeruginosa) [µM] | viability at 10 ug/ml [4] [%] | MIC99 (Staphylococcus aureus) [µM] | viability at 8 ug/ml [5] [%] | viability at 4 ug/ml [6] [%] | IC50 (Plasmodium falciparum) [nM] | MIC99 (Streptococcus pyogenes) [µM] | MIC99 (Aspergillus clavatus [7]) | IC50 (Dihydrofolate reductase) [nM] | MIC99 (Aspergillus clavatus [8]) [µM]
1 | Oc1ccc(/C=N/c2ccc(-c3nnc(S)o3)cc2)cc1 | Toxic | 72 | inactive | 421 (≈ 125 µg/mL) | 82.3 | 842 (≈ 250 µg/mL) | 45.3 | 673 (≈ 200 µg/mL) | 67 | 78.3 | 822 | 673 (≈ 200 µg/mL) | inactive | – | –
2 | Sc1nnc(-c2ccc(/N=C/c3ccc(Cl)cc3)cc2)n1/N=C/c1ccc(Cl)cc1 | Toxic | 62.3 | inactive | 554 (≈ 251 µg/mL) | 83.3 | 222 (≈ 100 µg/mL) | 47 | 554 (≈ 251 µg/mL) | 55.7 | 72.3 | 230 | 222 (≈ 100 µg/mL) | inactive | 34.9 | –
3 | O=C(O)c1cn(C2CC2)c2cc(N3CCNCC3)c(F)cc2c1=O [CIPROFLOXACIN] | – | – | – | 75 (≈ 24.9 µg/mL) | – | 75 (≈ 24.9 µg/mL) | – | 151 (≈ 50 µg/mL) | – | – | – | 151 (≈ 50 µg/mL) | – | – | –
4 | O=[N+]([O-])c1cccc(/C=N/c2ccc(-c3nnc(S)o3)cc2)c1 | Toxic | 65.7 | 1530 µM (≈ 501 µg/mL) | 613 (≈ 200 µg/mL) | 78.3 | 613 (≈ 200 µg/mL) | 46.3 | 383 (≈ 125 µg/mL) | 56.7 | 74.3 | 806 | 307 (≈ 100 µg/mL) | – | – | 1530 (≈ 501 µg/mL)
5 | Oc1ccc(/C=N/c2ccc(-c3nnc(S)n3/N=C/c3ccc(O)cc3)cc2)cc1 | Toxic | 78.7 | inactive | 241 (≈ 100 µg/mL) | 84.7 | 602 (≈ 250 µg/mL) | 72.3 | 602 (≈ 250 µg/mL) | 77 | 79.7 | 282 | 482 (≈ 200 µg/mL) | inactive | 49.5 | –
6 | CCN(CC)CCCC(C)Nc1ccnc2cc(Cl)ccc12 (configuration not stated) [CHLOROQUINE] | – | – | – | – | – | – | – | – | – | – | – | – | – | 30.1 | –
7 | Sc1nnc(-c2ccc(/N=C/c3cccs3)cc2)o1 | Toxic | 66.3 | inactive | 436 (≈ 125 µg/mL) | 74.3 | 871 (≈ 250 µg/mL) | 52.7 | 697 (≈ 200 µg/mL) | 61 | 70.7 | 802 | 348 (≈ 100 µg/mL) | inactive | – | –
8 | COc1ccc(/C=N/c2ccc(-c3nnc(S)n3/N=C/c3ccc(OC)cc3)cc2)cc1 | Toxic | 59 | 1130 µM (≈ 500 µg/mL) | 282 (≈ 125 µg/mL) | 79 | 564 (≈ 250 µg/mL) | 38.7 | 564 (≈ 250 µg/mL) | 52.7 | 64.3 | 835 | 226 (≈ 100 µg/mL) | – | – | 1130 (≈ 500 µg/mL)
9 | NYSTATIN | – | – | 108 µM | – | – | – | – | – | – | – | – | – | 108 µM | – | –
10 | Nc1ccc(-c2nnc(S)o2)cc1 | Toxic | 76 | 2590 µM (≈ 500 µg/mL) | 518 (≈ 100 µg/mL) | 87.3 | 1300 (≈ 250 µg/mL) | 68.3 | 324 (≈ 62.6 µg/mL) | 71 | 83 | 810 | 518 (≈ 100 µg/mL) | – | – | 1300 (≈ 250 µg/mL)
11 | COc1ccc(/C=N/c2ccc(-c3nnc(S)o3)cc2)cc1 | Toxic | 68 | 3220 µM (≈ 1000 µg/mL) | 643 (≈ 200 µg/mL) | 80.3 | 402 (≈ 125 µg/mL) | 49 | 804 (≈ 250 µg/mL) | 63.7 | 72.3 | 790 | 804 (≈ 250 µg/mL) | – | – | 1610 (≈ 500 µg/mL)
12 | O=[N+]([O-])c1cccc(/C=N/c2ccc(-c3nnc(S)n3/N=C/c3cccc([N+](=O)[O-])c3)cc2)c1 | Toxic | 73.7 | 1060 µM (≈ 500 µg/mL) | 423 (≈ 200 µg/mL) | 87 | 528 (≈ 250 µg/mL) | 59.7 | 264 (≈ 125 µg/mL) | 65.3 | 80 | 245 | 132 (≈ 62.5 µg/mL) | – | 25.9 | 2110 (≈ 1000 µg/mL)
13 | COC1=CC(=O)C[C@@H](C)[C@]12Oc1c(Cl)c(OC)cc(OC)c1C2=O [GRISEOFULVIN] | – | – | 1420 µM (≈ 501 µg/mL) | – | – | – | – | – | – | – | – | – | – | – | 284 (≈ 100 µg/mL)
14 | Sc1nnc(-c2ccc(/N=C/c3ccc(Cl)cc3)cc2)o1 | Toxic | 64.7 | inactive | 635 (≈ 201 µg/mL) | 81.3 | 397 (≈ 125 µg/mL) | 47 | 794 (≈ 251 µg/mL) | 54.7 | 73.3 | 301 | 397 (≈ 125 µg/mL) | inactive | 45 | –
15 | CCc1nc(N)nc(N)c1-c1ccc(Cl)cc1 [PYRIMETHAMINE] | – | – | – | – | – | – | – | – | – | – | 1000 | – | – | – | –
16 | Nc1ccc(-c2nnc(S)n2N)cc1 | Toxic | 82 | 4830 µM (≈ 1000 µg/mL) | 1210 (≈ 250 µg/mL) | 91.3 | 966 (≈ 200 µg/mL) | 67 | 1210 (≈ 250 µg/mL) | 75.7 | 85.7 | 960 | 1210 (≈ 250 µg/mL) | – | – | 2420 (≈ 501 µg/mL)
17 | Sc1nnc(-c2ccc(/N=C/c3cccs3)cc2)n1/N=C/c1cccs1 | Toxic | 75.3 | 2530 µM (≈ 1000 µg/mL) | 316 (≈ 125 µg/mL) | 87.7 | 633 (≈ 250 µg/mL) | 63.3 | 633 (≈ 250 µg/mL) | 70.7 | 82 | 815 | 506 (≈ 200 µg/mL) | inactive | – | –
18 | CC1(C)S[C@@H]2[C@H](NC(=O)[C@H](N)c3ccccc3)C(=O)N2[C@H]1C(=O)O [AMPICILLIN] | – | – | – | 286 (≈ 99.9 µg/mL) | – | 286 (≈ 99.9 µg/mL) | – | 716 (≈ 250 µg/mL) | – | – | – | 286 (≈ 99.9 µg/mL) | – | – | –
19 | O=C(N[C@H](CO)[C@H](O)c1ccc([N+](=O)[O-])cc1)C(Cl)Cl [CHLORAMPHENICOL] | – | – | – | 155 (≈ 50.1 µg/mL) | – | 155 (≈ 50.1 µg/mL) | – | 155 (≈ 50.1 µg/mL) | – | – | – | 155 (≈ 50.1 µg/mL) | – | – | –
20 | CCn1cc(C(=O)O)c(=O)c2cc(F)c(N3CCNCC3)cc21 [NORFLOXACIN] | – | – | – | 31 (≈ 9.9 µg/mL) | – | 31 (≈ 9.9 µg/mL) | – | 31 (≈ 9.9 µg/mL) | – | – | – | 31 (≈ 9.9 µg/mL) | – | – | –
